{"source": "paper PMC2063203", "about": "“The renal effects of the water-soluble, non-folylpolyglutamate synthetase-dependent thymidylate synthase inhibitor ZD9331 in mice” (British Journal of Cancer, 1998)", "test": "Kidney drug distribution and kidney-plasma ratios (HPLC)", "type": "in vivo, mice", "details": "for Cmax / Tmax / AUC(0-t): mouse, DBA-2 mice; for AUC(0-t): read-out: AUC0-8h", "procedure": "British Journal of Cancer (1998) 78(11), 1457-1463 ? […] In contrast to Tomudex (ZD1694), ZD9331 may therefore be active against tumours with low FPGS activity. […] In view of the history of renal toxicity with some earlier TS inhibitors and the possible therapeutic use of bolus ZD9331, we have examined the effects of bolus ZD9331 dose and route of administration on plasma and kidney pharmacokinetics and renal function in mice. Renal function was assessed by measuring [14C]inulin clearance, and drug concentrations were assayed by reverse-phase high-performance liquid chromatography (HPLC). […] Kidney drug concentrations were slightly elevated in iv.- versus i.p.-treated animals at the low dose (50 mg kg-'), with a correspondingly larger area under the curve. However, at the highest dose (200 mg kg-'), peak kidney drug concentrations were 20-fold higher following i.v. administration than after i.p., with marked kidney retention, resulting in a 50-fold greater kidney drug exposure for the i.v. versus the i.p. route. […] These adverse effects can be readily overcome by i.p. administration, indicating the likely need for short infusions in clinical settings. […] Early studies established that nephrotoxicity may be a result of poor aqueous solubility of 2-amino compounds such as CB3717, and it was shown that 2-desamino CB3717 was more water soluble and less nephrotoxic (Jones et al, 1989; 1996). […] These polyglutamate forms also exibit intra- cellular retention, which may contribute to toxicity as well as anti- tumour activity. […] Such compounds might be expected to show activity in a different spectrum of tumours from ZD1694 and to have a more manageable toxicity profile because of the lack of retained cyto- toxic metabolites. […] MATERIALS AND METHODS Drug administration and animals The compound ZD933 1 (Figure 1) was provided as a white crystalline salt. ['4C]inulin was provided as a carboxylic acid (Amersham, UK, 250 µCi in 5 ml, specific activity 6.6 mCi mmol-') and diluted to an activity of 5 µCi ml-' in phosphate-buffered saline (PBS). ZD9331 was dissolved in 0.05 M sodium bicarbonate, 1457 1458 Ml Walton et al ~~ N Ny~~~14COOHH 0 H IN H N CH ~~~~H , 4 H3C N3 H Figure 1 The chemical structure of ZD9331 adjusted to pH 9.0 and administered either i.v. via the tail vein or i.p. at 0.01 ml g-' mouse body weight. [14C]inulin was administered at 0.05 gCi g-' (i.e. 0.01 ml g-') i.v. via the tail vein. Adult female DBA-2 mice were obtained from OLAC (Bicester, UK) and used at 8-12 weeks of age at a body weight of 15-25 g. Mice were housed in cages containing untreated sawdust and allowed access to food and water ad libitum. Sample preparation Plasma and tissue samples were prepared using standard tech- niques (Walton et al, 1996). Briefly, whole blood was obtained by cardiac puncture into heparinized syringes from halothane- anaesthetized mice. Plasma was prepared by centrifugation at 12 000 r.p.m. x 2 min in a bench-top microcentrifuge. Kidney and liver tissues were rapidly removed, washed and snap frozen on dry ice. Frozen plasma and tissues were stored at -20?C for up to 4 weeks prior to analysis. Individual samples were thawed on ice and handled rapidly. ZD9331 was extracted from whole plasma or tissue homogenates (33% w/v in 0.1 M Tris, pH 10.0) by the addition of an equal volume of acetonitrile, mixing and centrifugation and the super- natant removed for injection into the HPLC system. Samples were diluted with Tris buffer (0.1 M, pH 10.0) on to the linear part of the calibration curve prior to HPLC analysis. Extraction efficiencies were >95%. HPLC analysis Concentrations of ZD9331 were measured in biological samples using reversed phase HPLC on equipment supplied by Kontron (Watford, UK). Separations were carried out using stainless-steel columns heated at 45?C and packed with C18 Supelcosil ODS (10 cm x 4.6 mm, 5 µm bead size, Sigma, Dorset) and protected with NewGuard C18 columns (Anachem, Luton, UK). […]", "key": {"[1]": {"details": "female, ip, kidney, 50 mg kg-1 i.p."}, "[2]": {"details": "female, ip, kidney, 200 mg kg-1 i.p."}, "[3]": {"details": "female, iv, kidney, 50 mg kg-1 i.v."}, "[4]": {"details": "female, iv, kidney, 200 mg kg-1 i.v."}}, "note": "Several values for one entry are separate records, joined by “and”; a condition that tells them apart may be missing. Equal entries are not always repeated. Where two headings read alike, the source gives them in different places."}
{"compound": "C#CCN(Cc1cc2c(=O)[nH]c(C)nc2cc1C)c1ccc(C(=O)N[C@@H](CCc2nnn[nH]2)C(=O)O)c(F)c1", "note": "[ZD9331, (2S)-2-{O-fluoro-p-(N-(2,7-dimethyl-4-oxo-3,4-dihydroquinazolin-6-ylmethyl)-N-(prop-2-ynyl)amino}benzamido}-4-(tetrazol-5-yl)butyric acid]", "values": [{"measurement": "peak kidney drug level i.p., % lower than i.v.", "setting": "50 mg kg-1", "result": 80, "unit": "%"}, {"measurement": "kidney AUC0-8h i.p. as % of i.v. route", "setting": "200 mg kg-1", "result": 1.8, "unit": "%"}, {"measurement": "kidney drug exposure i.v. versus i.p.", "setting": "200 mg kg-1", "result": 50, "unit": "fold"}, {"measurement": "peak kidney drug concentration i.v. versus i.p.", "setting": "200 mg kg-1", "result": 20, "unit": "fold"}, {"measurement": "peak kidney drug level i.p. as % of i.v. value", "setting": "200 mg kg-1", "result": 5, "unit": "%"}, {"measurement": "kidney-plasma ratio at 8 h", "setting": "200 mg kg-1 i.p.", "result": "2 000%"}, {"measurement": "kidney-plasma ratio relative to the lower dose of 50 mg kg-1", "setting": "200 mg kg-1 i.p.", "result": "2-3 times"}, {"measurement": "kidney-plasma ratio, initial", "setting": "200 mg kg-1 i.p.", "result": 20, "unit": "%"}, {"measurement": "kidney AUC0-8h", "setting": "200 mg kg-1 i.v.", "result": 9660, "unit": "µM·h"}, {"measurement": "kidney-plasma ratio after 8 h", "setting": "200 mg kg-1 i.v.", "result": "100 000%"}, {"measurement": "kidney-plasma ratio, initial (measured at 5 min)", "setting": "200 mg kg-1 i.v.", "result": "> 100", "unit": "%"}, {"measurement": "peak kidney drug level", "setting": "200 mg kg-1 i.v.", "result": 3.62, "unit": "mM"}, {"measurement": "peak kidney drug level versus lower dose", "setting": "200 mg kg-1 i.v. compared with 50 mg kg-1 i.v.", "result": "~12", "unit": "fold"}, {"measurement": "Kp at 4 h", "setting": "female, DBA-2, mouse, kidney, ip, 50 mg kg-1, 50 mg kg-1 i.p., Discussion, read-out: kidney-plasma ratio, steady-state equilibrium at 4 h", "result": "2 to 4"}, {"measurement": "Kp at 1 h", "setting": "female, DBA-2, mouse, kidney, ip, 50 mg kg-1, 50 mg kg-1 i.p., read-out: kidney-plasma ratio after 1 h", "result": 1}, {"measurement": "Kp", "setting": "female, DBA-2, mouse, kidney, ip, 50 mg kg-1, 50 mg kg-1 i.p., read-out: kidney-plasma ratio, steady-state", "result": "1 to 3"}, {"measurement": "Kp at 30 min", "setting": "female, DBA-2, mouse, kidney, iv, 50 mg kg-1, 50 mg kg-1 i.v., read-out: kidney-plasma ratio at 30 min", "result": 10}, {"measurement": "Kp at 2 h", "setting": "female, DBA-2, mouse, kidney, iv, 50 mg kg-1, 50 mg kg-1 i.v., read-out: kidney-plasma ratio, equilibrium at 2 h", "result": "2 to 3"}, {"measurement": "Kp", "setting": "female, DBA-2, mouse, kidney, iv, 50 mg kg-1, 50 mg kg-1 i.v., read-out: kidney-plasma ratio, initial", "result": 0.35}, {"measurement": "Kp", "setting": "female, DBA-2, mouse, kidney, iv, 200 mg kg-1, 200 mg kg-1 i.v., read-out: kidney concentration relative to plasma, plateau", "result": "400 to 600"}, {"measurement": "Kp at 5 min", "setting": "female, DBA-2, mouse, kidney, iv, 200 mg kg-1, 200 mg kg-1 i.v., read-out: kidney-plasma ratio, initial (measured at 5 min)", "result": 1}, {"measurement": "Kp", "setting": "female, DBA-2, mouse, kidney/plasma, ip, 200 mg kg-1, 200 mg kg-1 i.p., read-out: kidney-plasma ratio, increased steadily to", "result": "10 to 20"}, {"measurement": "Kp", "setting": "female, DBA-2, mouse, kidney/plasma, ip, 200 mg kg-1, 200 mg kg-1 i.p., read-out: kidney-plasma ratio, initial", "result": 0.23}, {"measurement": "Cmax", "setting": "[1]", "result": "31500 ng/g and 59.1 µM"}, {"measurement": "Tmax", "setting": "[1]", "result": 10, "unit": "min"}, {"measurement": "AUC(0-t)", "setting": "[1]", "result": 47.5, "unit": "µM·h"}, {"measurement": "Cmax", "setting": "[2]", "result": "96400 ng/g and 181 µM"}, {"measurement": "Tmax", "setting": "[2]", "result": 30, "unit": "min"}, {"measurement": "AUC(0-t)", "setting": "[2]", "result": 179, "unit": "µM·h"}, {"measurement": "Cmax", "setting": "[3]", "result": "163000 ng/g and 305 µM"}, {"measurement": "Tmax", "setting": "[3]", "result": 10, "unit": "min"}, {"measurement": "AUC(0-t)", "setting": "[3]", "result": 240, "unit": "µM·h"}, {"measurement": "Cmax", "setting": "[4]", "result": "1.9e+06 ng/g and 3.62 mM"}, {"measurement": "Tmax", "setting": "[4]", "result": 30, "unit": "min"}, {"measurement": "AUC(0-t)", "setting": "[4]", "result": 9660, "unit": "µM·h"}]}
